Data published in US11873290B2, “Pyridazinone compounds and uses thereof” (Edgewise Therapeutics, Inc., priority 2018, dated 2024).

What follows are compounds tested against skeletal myofibrils (myosin ATPase activity) (assay: Skeletal Myofibril ATPase Assay). Details: PK-LDH coupled, absorbance at 340 nm.
Type: biochemical
Method: Overview: Myosin ATPase activity is assessed by using a coupled reaction system, in which ADP generated by the myosin ATPase function is coupled to the disappearance of NADH through the pyruvate kinase/lactate dehydrogenase (PK-LDH) system. Myosin ATPase activity produces ADP, which is used as a substrate for PK to produce pyruvate and regenerate ATP. The pyruvate is then used as a substrate by LDH to oxidize NADH to NAD+. The rate of the reaction is monitored through the time-dependent disappearance of NADH using absorbance at 340 nm. Inhibition of ATPase activity by the assayed compounds is indicated by a reduced rate of NADH loss, relative to vehicle-treated controls, over the experimental time window. To assess the selectivity of the assayed compounds for skeletal myofibrils, the compounds are counter-screened in cardiac myofibrils.
Materials: The following stock solutions and reagents were used in the Skeletal Myofibril ATPase Assay:
Stock Solutions of pCa buffer. Combine PIPES, CaCl2, and EGTA solutions with 70 mL of water. Adjust pH to 7.0 and bring final volume to 100 mL.
Skeletal Myofibril ATPase Assay Procedure: BSA, ATP, NADH, PEP, and DTT solutions were thawed at room temperature, then transferred to ice. Pellet-frozen myofibrils (approximately twice the required volume) were transferred into a sufficiently large tube and capped. Myofibrils were thawed by rolling in a water bath for approximately 15 min at room temperature and cooled on ice. Buffers A and B were prepared by adjusting volumes as necessary for required number of wells and stored on ice. 0.5 μL of the compounds to be assayed were added into wells of a 384-well plate. Buffers A and B were mixed by inversion immediately prior to use, then 25 μL of each was dispensed using a Multidrop dispenser (Buffer A first, then Buffer B). The absorbance within the wells was measured at 340 nm, using a kinetic protocol in which the wells are read every 1.5-2 min for 1 h. The reaction rate was qualitatively assessed by subtracting the minimum absorbance value from the maximum value for each well, using either the SoftMax Pro plate reader software or a spreadsheet program such as Excel. Using GraphPad Prism 8.0, the data was normalized, with 100% activity defined as the absorbance change in the 1% DMSO vehicle wells and 0% assigned to no change in absorbance over the course of the experiment. The normalized data were fit to a variable-slope four-parameter logistic model, constraining the bottom to be 0 or greater. Compounds of Table 1 to 4 were tested and results of the assay appear in Table 5 herein. A=IC50 is less than or equal to 10 μM; B=IC50 is greater than 10 μM and less than 100 μM; C=IC50 is greater than 100 μM; […].

Which IC50 does the source give for `O=c1ccc(-c2cnc(N3CCCC3C(F)(F)F)nc2)nn1Cc1cncc(F)c1` (stereo not drawn) [Compound 54, 2-((5-fluoropyridin-3-yl)methyl)-6-(2-(2-(trifluoromethyl)pyrrolidin-l-yl)pyrimidin-5-yl)pyridazin-3(2H)-one] here?
Its IC50 is under 10 µM.

Which IC50 does the source give for `O=c1ccc(-c2cnc(OCC(F)(F)F)nc2)nn1Cc1nc2cc(F)ccc2o1` [Compound 55, 2-((5-fluorobenzo[d]oxazol-2-yl)methyl)-6-(2-(2,2,2,- trifluoroethoxy)pyrimidin-5-yl)pyridazin-3(2H)-one] here?
The IC50 was under 10 µM.

For `COCc1cc(Cn2nc(-c3cnc(OCC(F)(F)F)nc3)ccc2=O)on1` [Compound 56, 2-((3-(methoxymethyl)isoxazol-5-yl)methyl)-6-(2-(2,2,2-trifluoroethoxy)pyrimidin-5-yl)pyridazin-3(2H)-one], which IC50 is on record?
Its IC50 is under 10 µM.

`N#Cc1cncc(Cn2nc(-c3ccc(OC(F)F)nc3)ccc2=O)c1` [Compound 57, 5-((3-(6-(difluoromethoxy)pyridin-3-yl)-6-oxopyridazin-1(6H)-yl)methyl)nicotinonitrile] was tested. Which IC50 did it give?
The IC50 was 10 to 100 µM.

For `Cn1cc(Cn2nc(-c3cnc(OCC(F)(F)F)nc3)ccc2=O)cn1` [Compound 58, 2-((1-methyl-1H-pyrazol-4-yl)methyl)-6-(2-(2,2,2-trifluoroethoxy)pyrimidin-5-yl)pyridazin-3(2H)-one], which IC50 is on record?
The IC50 was under 10 µM.

With `O=c1ccc(-c2cnc(OCC(F)(F)F)nc2)nn1Cc1cncs1` [Compound 59, 2-(thiazol-5-ylmethyl)-6-(2-(2,2,2-trifluoroethoxy)pyrimidin-5-yl)pyridazin-3(2H)-one] as the compound, how does the IC50 read?
Its IC50 is under 10 µM.

With `Cc1ncc(Cn2nc(-c3cnc(OCC(F)(F)F)nc3)ccc2=O)o1` [Compound 60, 2-((2-methyloxazol-5-yl)methyl)-6-(2-(2,2,2-trifluoroethoxy)pyrimidin-5-yl)pyridazin-3(2H)-one] as the compound, how does the IC50 read?
Its IC50 is under 10 µM.

With `Cc1ncc(Cn2nc(-c3cnc(OCC(F)(F)F)nc3)ccc2=O)s1` [Compound 61, 2-((2-methylthiazol-5-yl)methyl)-6-(2-(2,2,2-trifluoroethoxy)pyrimidin-5-yl)pyridazin-3(2H)-one] as the compound, how does the IC50 read?
Its IC50 is under 10 µM.

For `O=c1ccc(-c2cnc(NC34CC(C3)C4)nc2)nn1Cc1cncc(F)c1` [Compound 64, 6-(2-(bicyclo[1.1.1]pentan-1-ylamino)pyrimidin-5-yl)-2-((5-fluoropyridin-3-yl)methyl)pyridazine-3(2H)-one], which IC50 is on record?
The IC50 was under 10 µM.

How did the IC50 turn out when `CSc1ncc(-c2ccc(=O)n(Cc3cc(C)no3)n2)cn1` [Compound 65, 2-((3-methylisoxazol-5-yl)methyl)-6-(2-(methylthio)pyrimidin-5-yl)pyridazine-3(2H)-one] was run?
The IC50 was under 10 µM.

`O=c1ccc(-c2cnc(OCC3(F)COC3)nc2)nn1Cc1cncc(F)c1` [Compound 66, 6-(2-((3-fluorooxetan-3-yl)methoxy)pyrimidin-5-yl)-2((5-fluoropyridin-3-yl)methyl)pyridazine-3(2H)-one] was tested. Which IC50 did it give?
Its IC50 is under 10 µM.

For `CCOc1ncc(-c2ccc(=O)n(Cc3cncc(F)c3)n2)cn1` [Compound 68, 6-(2-ethoxypyrimidin-5-yl)-2-((5-fluoropyridin-3-yl)methyl)pyridazine-3(2H)-one], which IC50 is on record?
The IC50 was under 10 µM.

For `COc1ncc(-c2ccc(=O)n(Cc3cncc(F)c3)n2)cn1` [Compound 69, 2-((5-fluoropyridin-3-yl)methyl)-6-(2-methoxypyrimidin-5-yl)pyridazine-3(2H)-one], which IC50 is on record?
Its IC50 is under 10 µM.

For `COCCOc1ncc(-c2ccc(=O)n(Cc3cncc(F)c3)n2)cn1` [Compound 70, 2-((5-fluoropyridin-3-yl)methyl)-6-(2-(2-methoxyethoxy)pyrimidin-5-yl)pyridazine-3(2H)-one], which IC50 is on record?
The IC50 was under 10 µM.

For `O=c1ccc(-c2ccc(NC34CC(C3)C4)nc2)nn1Cc1cccnc1` [Compound 71], which IC50 is on record?
The IC50 was under 10 µM.

Which IC50 does the source give for `O=c1ccc(-c2ccc(NC34CC(C3)C4)nc2)nn1Cc1cncc(F)c1` [Compound 72, 6-(6-(bicyclo[1.1.1]pentan-1-ylamino)pyridin-3-yl)-2-((5-fluoropyridin-3-yl)methyl)pyridazin-3(2H)-one] here?
Its IC50 is under 10 µM.

Which IC50 does the source give for `O=c1ccc(-c2cnc(N3CCC[C@@H]3C(F)(F)F)nc2)nn1Cc1cncc(F)c1` [Compound 73, (R)-2-((5-fluoropyridin-3-yl)methyl)-6-(2-(2-(trifluoromethyl)pyrrolidin-1-yl)pyrimidin-5-yl)pyridazin-3(2H)-one] here?
Its IC50 is under 10 µM.

Which IC50 does the source give for `O=c1ccc(-c2cnc(N3CCC[C@H]3C(F)(F)F)nc2)nn1Cc1cncc(F)c1` [Compound 74, (S)-2-((5-fluoropyridin-3-yl)methyl)-6-(2-(2-(trifluoromethyl)pyrrolidin-1-yl)pyrimidin-5-yl)pyridazin-3(2H)-one] here?
Its IC50 is under 10 µM.

`O=c1ccc(-c2cnc(NC34CC(C3)C4)nc2)nn1Cc1cncc(Cl)c1` [Compound 75, 6-(2-(bicyclo[1.1.1]pentan-1-ylamino)pyrimidin-5-yl)-2-((5-chloropyridin-3-yl)methyl)pyridazin-3(2H)-one] was tested. Which IC50 did it give?
Its IC50 is under 10 µM.

For `O=c1ccc(-c2ccc(OC(F)F)nc2)nn1Cc1cncc(C(F)(F)F)c1` [Compound 76, 6-(6-(difluoromethoxy)pyridin-3-yl)-2-((5-(trifluoromethyl)pyridin-3-yl)methyl)pyridazin-3(2H)-one], which IC50 is on record?
Its IC50 is under 10 µM.

With `O=c1ccc(-c2cnc(OCC(F)(F)F)nc2)nn1Cc1cncc(C(F)(F)F)c1` [Compound 77, 6-(2-(2,2,2-trifluoroethoxy)pyrimidin-5-yl)-2-((5-(trifluoromethyl)pyridin-3-yl)methyl)pyridazin-3(2H)-one] as the compound, how does the IC50 read?
The IC50 was under 10 µM.

How did the IC50 turn out when `O=c1ccc(-c2cnc(OCC(F)(F)F)nc2)nn1Cc1cnccc1O` [Compound 78, 2-((4-hydroxypyridin-3-yl)methyl)-6-(2-(2,2,2-trifluoroethoxy)pyrimidin-5-yl)pyridazin-3(2H)-one] was run?
The IC50 was over 100 µM.

How did the IC50 turn out when `O=c1ccc(-c2cnc(OCC(F)(F)F)nc2)nn1Cc1cnccc1F` [Compound 79, 2-((4-fluoropyridin-3-yl)methyl)-6-(2-(2,2,2-trifluoroethoxy)pyrimidin-5-yl)pyridazin-3(2H)-one] was run?
The IC50 was under 10 µM.

How did the IC50 turn out when `O=c1ccc(-c2cnc(OCC(F)(F)F)nc2)nn1Cc1ccc[n+]([O-])c1` [Compound 80, 3-((6-oxo-3-(2-(2,2,2-trifluoroethoxy)pyrimidin-5-yl)pyridazin-1(6H)-yl)methyl)pyridine 1-oxide] was run?
Its IC50 is over 100 µM.

Which IC50 does the source give for `O=c1ccc(-c2cnc(OCC(F)(F)F)nc2)nn1Cc1cc[n+]([O-])cc1` [Compound 81, 4-((6-oxo-3-(2-(2,2,2-trifluoroethoxy)pyrimidin-5-yl)pyridazin-1(6H)-yl)methyl)pyridine 1-oxide] here?
The IC50 was over 100 µM.

With `O=c1ccc(-c2cnc(OCC(F)(F)F)nc2)nn1Cc1cc(F)c[n+]([O-])c1` [Compound 82, 3-fluoro-5-((6-oxo-3-(2-(2,2,2-trifluoroethoxy)pyrimidin-5-yl)pyridazin-1(6H)-yl)methyl) pyridine 1-oxide] as the compound, how does the IC50 read?
The IC50 was 10 to 100 µM.

For `Cc1nc(Cn2nc(-c3cnc(OCC(F)(F)F)nc3)ccc2=O)co1` [Compound 83, 2-((2-methyloxazol-4-yl)methyl)-6-(2-(2,2,2-trifluoroethoxy)pyrimidin-5-yl)pyridazin-3(2H)-one], which IC50 is on record?
The IC50 was 10 to 100 µM.

Which IC50 does the source give for `O=c1ccc(-c2cnc(OCC(F)(F)F)nc2)nn1Cc1cnc(O)c(Cl)c1` [Compound 84, 2-((5-chloro-6-hydroxypyridin-3-yl)methyl)-6-(2-(2,2,2-trifluoroethoxy)pyrimidin-5-yl)pyridazin-3(2H)-one] here?
Its IC50 is over 100 µM.

How did the IC50 turn out when `O=c1ccc(-c2cnc(OCC(F)(F)F)nc2)nn1Cc1cnoc1` [Compound 85, 2-(isoxazol-4-ylmethyl)-6-(2-(2,2,2-trifluoroethoxy)pyrimidin-5-yl)pyridazin-3(2H)-one] was run?
The IC50 was 10 to 100 µM.

`Cc1cc(O)c(Cn2nc(-c3cnc(OCC(F)(F)F)nc3)ccc2=O)cn1` [Compound 86, 2-((4-hydroxy-6-methylpyridin-3-yl)methyl)-6-(2-(2,2,2-trifluoroethoxy)pyrimidin-5-yl)pyridazin-3(2H)-one] was tested. Which IC50 did it give?
Its IC50 is over 100 µM.

For `Cc1ncc(Cn2nc(-c3cnc(OCC(F)(F)F)nc3)ccc2=O)cc1Cl` [Compound 87, 2-((5-chloro-6-methylpyridin-3-yl)methyl)-6-(2-(2,2,2-trifluoroethoxy)pyrimidin-5-yl)pyridazin-3(2H)-one], which IC50 is on record?
Its IC50 is under 10 µM.

With `O=c1ccc(-c2cnc(OCC(F)(F)F)nc2)nn1Cc1nc(-c2ccc(F)cc2)no1` [Compound 88, 2-((3-(4-fluorophenyl)-1,2,4-oxadiazol-5-yl)methyl)-6-(2-(2,2,2-trifluoroethoxy)pyrimidin-5-yl)pyridazine-3(2H)-one] as the compound, how does the IC50 read?
Its IC50 is under 10 µM.

Which IC50 does the source give for `O=c1ccc(-c2cnc(OCC3(F)COC3)nc2)nn1Cc1nc(-c2ccccc2)no1` [Compound 91] here?
Its IC50 is under 10 µM.
